Experimental data: patent US20120322829A1, “USE OF A DIPYRIDYL COMPOUND FOR TREATING ROSACEA” (GALDERMA RESEARCH & DEVELOPMENT, priority 2009, published 2012)

How the values were obtained:
Format in all cases: biochemical
[1] = target: T1, MMP-1 (Homo sapiens, UniProt P03956); experiment: MMP-1 activity, fluorometric detection of reaction product; conditions: 10 μM; human recombinant protein; remaining activity
T1 sequence (P03956 100-469): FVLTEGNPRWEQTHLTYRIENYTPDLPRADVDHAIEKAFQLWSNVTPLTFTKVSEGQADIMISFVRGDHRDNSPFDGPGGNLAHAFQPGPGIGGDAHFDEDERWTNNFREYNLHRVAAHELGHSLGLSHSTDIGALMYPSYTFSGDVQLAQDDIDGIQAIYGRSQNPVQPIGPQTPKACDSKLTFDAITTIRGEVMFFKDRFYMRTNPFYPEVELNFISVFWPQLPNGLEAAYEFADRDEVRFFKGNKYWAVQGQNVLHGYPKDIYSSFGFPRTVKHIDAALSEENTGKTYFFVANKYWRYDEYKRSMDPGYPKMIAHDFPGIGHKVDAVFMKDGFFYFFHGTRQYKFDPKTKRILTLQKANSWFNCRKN
Protocol: (§1) The activity of MMPs of MMP-1, MMP-2, MMP-9, MMP-12, MMP-13 and TACE was measured using human recombinant proteins. The activity of MMP-8 was measured in human neutrophiles. After incubation with the corresponding substrate, the reaction product of each MMP was detected by fluorometry. The results are expressed as specific control activity percentages ((specific activity measured/specific control activity)×100) obtained in the presence of the compounds tested.

[2] = target: T2, MMP-2 (Homo sapiens, UniProt P08253); experiment: MMP-2 activity, fluorometric detection of reaction product; conditions: 10 μM; human recombinant protein; remaining activity
T2 sequence (P08253 110-660): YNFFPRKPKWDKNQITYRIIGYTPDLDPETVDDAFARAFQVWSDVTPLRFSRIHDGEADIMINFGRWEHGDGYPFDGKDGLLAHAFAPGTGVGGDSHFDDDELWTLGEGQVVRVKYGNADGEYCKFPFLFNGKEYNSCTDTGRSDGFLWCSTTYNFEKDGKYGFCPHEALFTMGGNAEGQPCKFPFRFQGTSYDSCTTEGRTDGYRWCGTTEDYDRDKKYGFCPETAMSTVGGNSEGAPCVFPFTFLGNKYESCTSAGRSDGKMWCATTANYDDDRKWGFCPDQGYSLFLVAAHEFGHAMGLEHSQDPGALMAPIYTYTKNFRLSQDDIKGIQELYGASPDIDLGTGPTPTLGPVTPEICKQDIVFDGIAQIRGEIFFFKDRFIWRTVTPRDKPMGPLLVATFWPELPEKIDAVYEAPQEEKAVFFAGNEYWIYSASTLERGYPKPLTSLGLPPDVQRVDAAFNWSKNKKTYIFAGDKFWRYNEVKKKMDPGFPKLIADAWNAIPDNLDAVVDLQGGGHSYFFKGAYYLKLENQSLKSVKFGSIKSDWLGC
Protocol: as §1

[3] = target: T3, MMP-8 (Homo sapiens, UniProt P22894); experiment: MMP-8 activity measured in human neutrophiles, fluorometry; conditions: 10 μM, remaining activity
T3 construct: endogenous in cells; host or cells: human neutrophils
Protocol: as §1

[4] = target: MMP-9 (Homo sapiens, UniProt P14780); experiment: MMP-9 activity, fluorometric detection of reaction product; conditions: 10 μM; human recombinant protein; remaining activity
Protocol: as §1

[5] = target: MMP-12 (Homo sapiens, UniProt P39900); experiment: MMP-12 activity, fluorometric detection of reaction product; conditions: 10 μM; human recombinant protein; remaining activity
Protocol: as §1

[6] = target: MMP-13 (Homo sapiens, UniProt P45452); experiment: MMP-13 activity, fluorometric detection of reaction product; conditions: 10 μM; human recombinant protein; remaining activity
Protocol: as §1

[7] = target: MMP-14 (Homo sapiens, UniProt P50281); experiment: MMP-14 activity; conditions: 10 μM; remaining activity
[8] = target: TACE (TNF-alpha converting enzyme) (Homo sapiens, UniProt P78536); experiment: TACE activity, fluorometric detection of reaction product; conditions: 10 μM; human recombinant protein; remaining activity
Protocol: as §1

T3 sequence (P22894 101-467): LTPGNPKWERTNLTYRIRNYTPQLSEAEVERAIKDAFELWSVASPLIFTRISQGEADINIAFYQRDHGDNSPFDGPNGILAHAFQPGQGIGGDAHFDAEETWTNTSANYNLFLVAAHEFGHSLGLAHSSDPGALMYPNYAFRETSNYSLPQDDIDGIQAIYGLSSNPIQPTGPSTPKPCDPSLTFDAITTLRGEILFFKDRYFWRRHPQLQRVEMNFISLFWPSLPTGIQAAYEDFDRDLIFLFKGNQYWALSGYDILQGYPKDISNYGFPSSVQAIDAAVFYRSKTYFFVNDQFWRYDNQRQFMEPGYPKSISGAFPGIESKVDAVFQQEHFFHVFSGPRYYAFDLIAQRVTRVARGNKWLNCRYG
Sequence of MMP-9 (P14780 94-707): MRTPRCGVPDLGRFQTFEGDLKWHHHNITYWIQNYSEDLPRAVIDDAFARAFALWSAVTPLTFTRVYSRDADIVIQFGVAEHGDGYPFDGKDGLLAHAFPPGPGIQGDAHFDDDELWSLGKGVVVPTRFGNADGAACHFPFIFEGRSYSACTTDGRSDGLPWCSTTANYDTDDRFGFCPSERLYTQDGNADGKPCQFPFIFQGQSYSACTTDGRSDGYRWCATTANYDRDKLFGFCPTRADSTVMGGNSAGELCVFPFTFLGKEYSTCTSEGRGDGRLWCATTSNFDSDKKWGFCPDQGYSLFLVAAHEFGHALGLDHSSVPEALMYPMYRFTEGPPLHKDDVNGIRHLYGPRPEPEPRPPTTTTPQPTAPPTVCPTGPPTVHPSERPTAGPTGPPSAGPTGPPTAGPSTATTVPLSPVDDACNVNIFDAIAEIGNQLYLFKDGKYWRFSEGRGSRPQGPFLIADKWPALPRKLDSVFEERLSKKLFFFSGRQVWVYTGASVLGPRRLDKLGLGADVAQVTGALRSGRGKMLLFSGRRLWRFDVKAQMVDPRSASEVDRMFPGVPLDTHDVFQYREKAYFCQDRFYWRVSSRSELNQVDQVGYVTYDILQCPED
Sequence of TACE (TNF-alpha converting enzyme) (P78536 215-824): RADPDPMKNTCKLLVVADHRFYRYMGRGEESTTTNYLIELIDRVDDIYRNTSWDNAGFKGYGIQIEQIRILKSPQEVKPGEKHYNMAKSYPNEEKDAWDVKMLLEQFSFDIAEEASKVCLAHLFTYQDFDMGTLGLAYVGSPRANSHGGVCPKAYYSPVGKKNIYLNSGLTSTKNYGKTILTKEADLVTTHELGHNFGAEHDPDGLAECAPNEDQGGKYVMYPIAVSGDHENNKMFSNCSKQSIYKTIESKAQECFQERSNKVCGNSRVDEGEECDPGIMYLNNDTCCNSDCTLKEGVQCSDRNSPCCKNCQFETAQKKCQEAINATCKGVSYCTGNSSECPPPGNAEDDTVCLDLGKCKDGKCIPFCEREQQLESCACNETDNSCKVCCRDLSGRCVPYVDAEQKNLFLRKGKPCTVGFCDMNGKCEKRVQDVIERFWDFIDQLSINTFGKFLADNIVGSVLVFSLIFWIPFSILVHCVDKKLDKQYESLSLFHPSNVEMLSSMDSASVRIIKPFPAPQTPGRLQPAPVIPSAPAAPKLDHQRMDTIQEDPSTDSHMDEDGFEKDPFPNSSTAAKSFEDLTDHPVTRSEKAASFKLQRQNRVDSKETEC
Sequence of MMP-12 (P39900 106-470): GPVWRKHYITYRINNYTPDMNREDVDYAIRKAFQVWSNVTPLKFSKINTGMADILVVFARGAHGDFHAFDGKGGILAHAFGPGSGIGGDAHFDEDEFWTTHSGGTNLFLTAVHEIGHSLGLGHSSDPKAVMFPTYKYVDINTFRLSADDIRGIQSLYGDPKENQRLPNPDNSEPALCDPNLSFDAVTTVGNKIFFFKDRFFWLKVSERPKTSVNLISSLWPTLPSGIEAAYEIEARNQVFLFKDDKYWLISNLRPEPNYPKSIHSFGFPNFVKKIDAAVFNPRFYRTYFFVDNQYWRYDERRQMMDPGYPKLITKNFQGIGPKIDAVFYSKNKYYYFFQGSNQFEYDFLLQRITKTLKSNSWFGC

SMILES	MMP activity (% of control values ± SD), MMP-1 [1]	MMP activity (% of control values ± SD), MMP-2 [2]	MMP activity (% of control values ± SD), MMP-8 [3]	MMP activity (% of control values ± SD), MMP-9 [4]	MMP activity (% of control values ± SD), MMP-12 [5]	MMP activity (% of control values ± SD), MMP-13 [6]	MMP activity (% of control values ± SD), MMP-14 [7]	MMP activity (% of control values ± SD), TACE [8]
Cc1ccc(-c2ccc(C)cn2)nc1 [5,5′-dimethyl-2,2′-dipyridyl]	96.1 ± 0.3 % of control values	86.4 ± 2.2 % of control values	88.3 ± 6.7 % of control values	86.0 ± 3.4 % of control values	93.4 ± 0.4 % of control values	89.4 ± 1.2 % of control values	90.2 ± 4.1 % of control values	100.8 ± 2.1 % of control values
Cc1cccc(-c2cccc(C)n2)n1 [6,6′-dimethyl-2,2′-dipyridyl]	98.8 ± 0.7 % of control values	95.9 ± 7.5 % of control values	95.0 ± 6.5 % of control values	101.0 ± 3.3 % of control values	96.3 ± 1.0 % of control values	96.2 ± 2.6 % of control values	84.3 ± 3.0 % of control values	100.3 ± 0.2 % of control values
Cc1ccnc(-c2cc(C)ccn2)c1 [4,4′-dimethyl-2,2′-dipyridyl]	94.3 ± 0.1 % of control values	100.8 ± 6.0 % of control values	86.5 ± 7.4 % of control values	88.5 ± 3.4 % of control values	96.3 ± 1.0 % of control values	90.0 ± 4.1 % of control values	90.8 ± 4.7 % of control values	106.4 ± 1.2 % of control values
